Results on one compound are retold here after paper PMC10095550, “Design, Synthesis and Biological Evaluation of 6-(Imidazo[1,2-a]pyridin-6-yl)quinazoline Derivatives as Anticancer Agents via PI3Kα Inhibition” (International Journal of Molecular Sciences, 2023).

For this assay, the target named is T1, PI3Kα (Homo sapiens, UniProt P42336).
T1 construct: gene PIK3CA
Kind of assay: ADP-Glo Max kinase assay. The format is biochemical. (In general: In ADP-Glo the light output rises with the ADP produced.)

Broadly, the IC50 is the concentration at which inhibition is half-maximal. Read a low IC50 as greater potency.

T1 sequence (P42336 whole entry): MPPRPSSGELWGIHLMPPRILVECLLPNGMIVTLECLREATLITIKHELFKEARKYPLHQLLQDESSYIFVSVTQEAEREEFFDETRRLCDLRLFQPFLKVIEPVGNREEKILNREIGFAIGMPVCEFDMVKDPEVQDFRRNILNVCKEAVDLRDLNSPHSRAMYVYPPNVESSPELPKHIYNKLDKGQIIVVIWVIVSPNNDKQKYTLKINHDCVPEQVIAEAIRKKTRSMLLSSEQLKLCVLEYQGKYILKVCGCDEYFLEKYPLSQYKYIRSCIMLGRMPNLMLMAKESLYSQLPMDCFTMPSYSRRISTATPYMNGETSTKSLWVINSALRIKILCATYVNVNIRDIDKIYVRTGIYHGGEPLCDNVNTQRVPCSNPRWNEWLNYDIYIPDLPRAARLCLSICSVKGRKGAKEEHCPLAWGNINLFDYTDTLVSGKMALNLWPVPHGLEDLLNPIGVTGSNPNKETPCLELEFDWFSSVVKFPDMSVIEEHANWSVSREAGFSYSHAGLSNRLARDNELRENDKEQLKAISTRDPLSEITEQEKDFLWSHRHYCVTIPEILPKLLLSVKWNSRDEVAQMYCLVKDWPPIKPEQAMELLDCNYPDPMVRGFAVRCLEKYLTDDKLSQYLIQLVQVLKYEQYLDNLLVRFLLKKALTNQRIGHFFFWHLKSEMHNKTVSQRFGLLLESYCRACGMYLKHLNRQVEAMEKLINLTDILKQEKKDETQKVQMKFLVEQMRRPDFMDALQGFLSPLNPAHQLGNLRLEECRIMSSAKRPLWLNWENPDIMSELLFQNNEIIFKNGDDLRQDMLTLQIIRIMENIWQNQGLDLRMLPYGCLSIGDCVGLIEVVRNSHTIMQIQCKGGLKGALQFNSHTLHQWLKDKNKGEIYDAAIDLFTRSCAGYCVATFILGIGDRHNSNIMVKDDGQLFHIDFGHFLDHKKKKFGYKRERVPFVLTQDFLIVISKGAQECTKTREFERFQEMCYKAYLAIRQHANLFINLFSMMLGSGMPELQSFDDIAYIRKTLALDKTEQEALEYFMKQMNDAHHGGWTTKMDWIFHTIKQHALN

Take `c1ccc(-c2cn3cc(-c4ccc5ncnc(NCC6CCOCC6)c5c4)ccc3n2)cc1` [13k, 6-(2-phenylimidazo[1,2-a]pyridin-6-yl)-N-((tetrahydro-2H-pyran-4-yl)methyl)quinazolin-4-amine]: 1.94 ± 0.66 nM corresponded to half-maximal inhibition (IC50).
